In ChEMBL document CHEMBL1909294, “Translating clinical findings into knowledge in drug safety evaluation--drug induced liver injury prediction system (DILIps)” (PLoS Comput Biol, 2011):
*1 amine or outer side, *2 acyl side, *3 side chain or, on linkers, in order; H or OH if unused. Where a SMILES comes first, the peptide text is derived from it. Bridges are numbered along the chain shown (N, C = ends). [ ]: non-standard residue; d: D form. The star is where a group is joined. hTyr(3S-OH,4S-OH,3'-OSO3H) = N[C@H](C(=O)O)[C@H](O)[C@@H](O)c1ccc(O)c(OS(=O)(=O)O)c1; Orn(4R-OH,5R-OH) = O=C([C@H](C[C@@H](O)[C@@H](O)N[*:3])N[*:1])[*:2]; Pro(3S-OH,4S-Me) = C[C@H]1CN[C@H](C(=O)O)[C@H]1O; X1 = CCCCCOc1ccc(-c2cc(-c3ccc(C(=O)*)cc3)no2)cc1; Gln(3R-OH) = NC(=O)C[C@@H](O)[C@H](N)C(=O)O; Hyp = O=C(O)[C@@H]1C[C@@H](O)CN1

Columns and labels:
[1] = system: Hepatotoxicity;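 on HepSE bilirubinemia: bilirubinemia hepatic side effect score drawn from the DILIps training data, a prediction system for drug-induced liver injury; call rule not given here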;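 on HepSE cholecystitis: Cholecystitis-related hepatic side effect score drawn from the DILIps (drug-induced liver injury prediction) training data set; call rule not given here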;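 on HepSE cholelithiasis: hepatic side effect score for cholelithiasis, drawn from the DILIps training data for predicting drug-induced liver injury; call rule not given here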;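 on HepSE cirrhosis: cirrhosis hepatic side effect score taken from the DILIps (drug-induced liver injury prediction) training set; call rule not given here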;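 on HepSE elevated liver function tests: hepatic side effect score for raised liver function tests, as recorded in the DILIps training set used for predicting drug-induced liver injury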; on HepSE hepatic failure: call rule not given here;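 on HepSE hepatomegaly: hepatic side effect score for hepatomegaly, taken from the training set of the DILIps drug-induced liver injury prediction system; call rule not given here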
[2] = system: Hepatotoxicity; remark: listed apart in the source;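 on HepSE bilirubinemia: bilirubinemia hepatic side effect score drawn from the DILIps training data, a prediction system for drug-induced liver injury; call rule not given here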;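 on HepSE cholecystitis: Cholecystitis-related hepatic side effect score drawn from the DILIps (drug-induced liver injury prediction) training data set; call rule not given here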;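 on HepSE cholelithiasis: hepatic side effect score for cholelithiasis, drawn from the DILIps training data for predicting drug-induced liver injury; call rule not given here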;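 on HepSE cirrhosis: cirrhosis hepatic side effect score taken from the DILIps (drug-induced liver injury prediction) training set; call rule not given here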;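 on HepSE elevated liver function tests: hepatic side effect score for raised liver function tests, as recorded in the DILIps training set used for predicting drug-induced liver injury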; on HepSE hepatic failure: call rule not given here;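 on HepSE hepatomegaly: hepatic side effect score for hepatomegaly, taken from the training set of the DILIps drug-induced liver injury prediction system; call rule not given here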
[3] = system: Hepatotoxicity; remark: listed apart in the source;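 on HepSE bilirubinemia: bilirubinemia hepatic side effect score drawn from the DILIps training data, a prediction system for drug-induced liver injury; call rule not given here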;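 on HepSE cholecystitis: Cholecystitis-related hepatic side effect score drawn from the DILIps (drug-induced liver injury prediction) training data set; call rule not given here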;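 on HepSE cholelithiasis: hepatic side effect score for cholelithiasis, drawn from the DILIps training data for predicting drug-induced liver injury; call rule not given here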;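 on HepSE cirrhosis: cirrhosis hepatic side effect score taken from the DILIps (drug-induced liver injury prediction) training set; call rule not given here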;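 on HepSE elevated liver function tests: hepatic side effect score for raised liver function tests, as recorded in the DILIps training set used for predicting drug-induced liver injury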; on HepSE hepatic failure: call rule not given here
[4] = system: Hepatotoxicity; remark: listed apart in the source;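 on HepSE bilirubinemia: bilirubinemia hepatic side effect score drawn from the DILIps training data, a prediction system for drug-induced liver injury; call rule not given here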;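 on HepSE cholecystitis: Cholecystitis-related hepatic side effect score drawn from the DILIps (drug-induced liver injury prediction) training data set; call rule not given here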;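 on HepSE cholelithiasis: hepatic side effect score for cholelithiasis, drawn from the DILIps training data for predicting drug-induced liver injury; call rule not given here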;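 on HepSE cirrhosis: cirrhosis hepatic side effect score taken from the DILIps (drug-induced liver injury prediction) training set; call rule not given here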;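 on HepSE elevated liver function tests: hepatic side effect score for raised liver function tests, as recorded in the DILIps training set used for predicting drug-induced liver injury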; on HepSE hepatic failure: call rule not given here
[5] = system: Hepatotoxicity; remark: listed apart in the source; on HepSE hepatic failure: call rule not given here
[6] = system: Hepatotoxicity; remark: listed apart in the source; on HepSE hepatic failure: call rule not given here
[7] = system: Hepatotoxicity; remark: listed apart in the source
[8] = system: Hepatotoxicity; remark: listed apart in the source
[9] = system: Hepatotoxicity; remark: listed apart in the source
[10] = system: Hepatotoxicity; remark: listed apart in the source
[11] = system: Hepatotoxicity; remark: listed apart in the source
[12] = system: Hepatotoxicity; remark: listed apart in the source
[13] = system: Hepatotoxicity; remark: listed apart in the source
[14] = system: Hepatotoxicity; remark: listed apart in the source

Row | SMILES | HepSE_bilirubinemia [1] | HepSE_cholecystitis [2] | HepSE_cholelithiasis [3] | HepSE_cirrhosis [4] | HepSE_elevated liver function tests [5] | HepSE_hepatic failure [6] | HepSE_hepatic necrosis [7] | HepSE_hepatitis [8] | HepSE_hepatomegaly [9] | HepSE_jaundice [10] | HepSE_liver disease [11] | HepSE_liver fatty [12] | HepSE_liver function tests abnormal [13] | HepSE_Combined Scores [14] | also measured
1 | CC(C)(C(=O)c1cccnc1)c1cccnc1 [METYRAPONE] |  |  |  |  |  |  |  |  |  |  |  |  |  |  | HepSE_bilirubinemia ([1]; Liver): 0; HepSE_cholecystitis ([2]; Liver): 0; HepSE_cholelithiasis ([3]; Liver): 0; HepSE_cirrhosis ([4]; Liver): 0; HepSE_elevated liver function tests ([5]; Liver): 0; HepSE_hepatic failure ([6]; Liver): 0; HepSE_hepatic necrosis ([7]; Liver): 0; HepSE_hepatitis ([8]; Liver): 0; HepSE_hepatomegaly ([9]; Liver): 0; HepSE_jaundice ([10]; Liver): 0; HepSE_liver disease ([11]; Liver): 0; HepSE_liver fatty ([12]; Liver): 0; HepSE_liver function tests abnormal ([13]; Liver): 0; HepSE_Combined Scores ([14]; Liver): 0
2 | Cc1cccc(C)c1OCC(C)N (configuration not stated) [MEXILETINE] |  |  |  |  |  |  |  |  |  |  |  |  |  |  | HepSE_bilirubinemia ([1]; Liver): 0; HepSE_cholecystitis ([2]; Liver): 0; HepSE_cholelithiasis ([3]; Liver): 0; HepSE_cirrhosis ([4]; Liver): 0; HepSE_elevated liver function tests ([5]; Liver): 0; HepSE_hepatic failure ([6]; Liver): 0; HepSE_hepatic necrosis ([7]; Liver): 1; HepSE_hepatitis ([8]; Liver): 1; HepSE_hepatomegaly ([9]; Liver): 0; HepSE_jaundice ([10]; Liver): 0; HepSE_liver disease ([11]; Liver): 0; HepSE_liver fatty ([12]; Liver): 0; HepSE_liver function tests abnormal ([13]; Liver): 1; HepSE_Combined Scores ([14]; Liver): 3
3 | CCCCCOc1ccc(-c2cc(-c3ccc(C(=O)N[C@H]4C[C@@H](O)[C@@H](O)NC(=O)[C@@H]5[C@@H](O)[C@@H](C)CN5C(=O)[C@H]([C@H](O)CC(N)=O)NC(=O)[C@H]([C@H](O)[C@@H](O)c5ccc(O)c(OS(=O)(=O)O)c5)NC(=O)[C@@H]5C[C@@H](O)CN5C(=O)[C@H]([C@@H](C)O)NC4=O)cc3)no2)cc1 [MICAFUNGIN] (X1-[Orn(4R-OH,5R-OH)]T[Hyp][hTyr(3S-OH,4S-OH,3'-OSO3H)][Gln(3R-OH)][Pro(3S-OH,4S-Me)]; lactam 1-C) | 1 | 0 | 0 | 0 | 0 | 1 | 0 | 0 | 1 | 1 | 1 | 0 | 1 | 6 | 
4 | Clc1ccc(COC(Cn2ccnc2)c2ccc(Cl)cc2Cl)c(Cl)c1 (configuration not stated) [MICONAZOLE] | 0 | 0 | 0 | 0 | 0 | 0 | 0 | 0 | 0 | 0 | 0 | 0 | 0 | 0 | 
5 | Cc1ncc2n1-c1ccc(Cl)cc1C(c1ccccc1F)=NC2 [MIDAZOLAM] | 0 | 0 | 0 | 0 | 0 | 0 | 0 | 0 | 0 | 0 | 0 | 0 | 0 | 0 | 
6 | COc1ccc(OC)c(C(O)CNC(=O)CN)c1 (configuration not stated) [MIDODRINE] | 0 | 0 | 0 | 0 | 0 | 0 | 0 | 0 | 0 | 0 | 0 | 0 | 0 | 0 | 
7 | CC#C[C@]1(O)CC[C@H]2[C@@H]3CCC4=CC(=O)CCC4=C3[C@@H](c3ccc(N(C)C)cc3)C[C@@]21C [MIFEPRISTONE] | 0 | 0 | 0 | 0 | 0 | 0 | 0 | 0 | 0 | 0 | 0 | 0 | 0 | 0 | 
8 | OCCN1C[C@H](O)[C@@H](O)[C@H](O)[C@H]1CO [MIGLITOL] | 0 | 0 | 0 | 0 | 0 | 0 | 0 | 0 | 0 | 0 | 0 | 0 | 0 | 0 | 
9 | Cc1[nH]c(=O)c(C#N)cc1-c1ccncc1 [MILRINONE] | 0 | 0 | 0 | 0 | 0 | 0 | 0 | 0 | 0 | 0 | 0 | 0 | 0 | 0 | 
10 | CN(C)c1ccc(O)c2c1C[C@H]1C[C@H]3[C@H](N(C)C)C(O)=C(C(N)=O)C(=O)[C@@]3(O)C(O)=C1C2=O [MINOCYCLINE] | 1 | 0 | 0 | 0 | 0 | 1 | 0 | 1 | 0 | 1 | 0 | 0 | 0 | 4 | 
11 | Nc1cc(N2CCCCC2)nc(N)[n+]1[O-] [MINOXIDIL] | 0 | 0 | 0 | 0 | 0 | 0 | 0 | 0 | 0 | 0 | 0 | 0 | 0 | 0 | 
12 | CN1CCN2c3ncccc3Cc3ccccc3C2C1 (configuration not stated) [MIRTAZAPINE] | 0 | 1 | 0 | 1 | 0 | 0 | 0 | 0 | 0 | 0 | 0 | 0 | 1 | 3 | 
13 | CCCCC(C)(O)C/C=C/[C@H]1[C@H](O)CC(=O)[C@@H]1CCCCCCC(=O)OC (some centres not stated) [MISOPROSTOL] | 0 | 0 | 0 | 0 | 0 | 0 | 0 | 0 | 0 | 0 | 0 | 0 | 0 | 0 | 
